Data on seven molecules can be found in patent US4381304A, “4,9-Dihydro-4,9-dioxo-1H-cyclohepta[b]pyridine derivatives” (Ayerst, McKenna & Harrison, Inc., priority 1981, dated 1983).

The test system of data set [1] is aldose reductase. Particulars: literature report; cited from earlier work.
Data set [2] deals with diabetic complications such as diabetic cataracts, neuropathy, nephropathy and retinopathy. Conditions: literature report (U.S. Pat. No. 3,821,383); cited from earlier work.
The target of data set [3] is T1, aldose reductase (Bos taurus, UniProt P16116).
T1 construct: preparation of the enzyme from bovine lens; from tissue; host or cells: bovine lens
The data set can be described thus: in vitro aldose reductase inhibition (modified Hayman and Kinoshita procedure). The class given is biochemical, bovine (lens). Conditions: for inhibition at 10 µM: read-out: % Inhibition at Different Molar Concentrations (in vitro), 10^-5; for inhibition at 1 µM: 10^-6 molar, read-out: % Inhibition at Different Molar Concentrations (in vitro), 10^-6; for inhibition at 0.1 µM: 10^-7 molar, read-out: % Inhibition at Different Molar Concentrations (in vitro), 10^-7. The source says: In the present case the procedure of Hayman and Kinoshita is modified in that the final chromatography step is omitted in the preparation of the enzyme from bovine lens.

A short description of data set [4]: stability of the salt in the presence of acid. The class given is physicochemical. How it is done:
A mixture of 3-{[N-(methoxycarbonylmethyl)-N-methylamino]carbonyl}-4,9-dihydro-4,9-dioxo-1H-cyclohepta[b]pyridine-1-acetic acid ethyl ester (2.36 g, described in example 6) and 2% aqueous sodium hydroxide (w/v, 25 ml) was stirred at 25° C. for 4 hr. Evaporation of the reaction mixture gave the title disodium salt. […] The salt had mp>250° C.; nmr (D2 O) δ3.0 (d, 3H), 4.0 (d, 2H), 4.7 (s, 2H), 6.8-8.3 (m, 5H); ir (Nujol*) 3400, 3150, 1610 cm^-1 (with inflections at 1625 and 1585 cm^-1); uv λ max (MeOH) 340 nm (ε7,390), 237 (13,000); Anal Calcd for C16 H12 N2 O7 Na2.3H2 O: C, 43.24% H, 4.08% […]; Found: C, 42.76% H, 3.57%, N, 7.18%.

Where [5] appears, read: 10^-5 molar, enzyme from bovine lens.

Read-outs that look alike come from different tables or passages of the source.

As for `O=C(O)CN1C(=O)c2cccc3cccc(c23)C1=O` [1,3-Dioxo-1H-benz[de]isoquinoline-2(3H)-acetic acid], in the data set with aldose reductase [1], the “aldose reductase inhibition (in words)” value is “effective inhibitor of aldose reductase”. The “usefulness for the treatment of diabetic complications (in words)” value in data set [2] was “useful for the treatment of diabetic complications such as diabetic cataracts, neuropathy, nephropathy and retinopathy”.
Regarding `O=C1NC(=O)[C@@]2(CCOc3ccc(F)cc32)N1` [sorbinil, (S)-6-Fluoro-2,3-dihydrospiro(4H-1-benzopyran-4,4'-imidazolidine)-2',5'-dione], the “aldose reductase inhibition (in words)” value in the data set on aldose reductase [1] is given as “aldose reductase inhibiting properties”.
As for `O=C(O)Cn1cc(C(=O)O)c(=O)c2ccccc(=O)c21` [Example 4 (R^1 COOH, R^2 H), 3-Carboxy-4,9-dihydro-4,9-dioxo-1H-cyclohepta[b]pyridine-1-acetic Acid], on aldose reductase [3] (setting [5]), the inhibition at 10 µM turned out to be 89%. Besides, on aldose reductase [3] (enzyme from bovine lens), the inhibition at 1 µM was 65% and the inhibition at 0.1 µM came out at 19%.
Take `CN(CC(=O)[O-])C(=O)c1cn(CC(=O)[O-])c2c(=O)ccccc2c1=O.[Na+].[Na+]`: in data set [4], the “stability in the presence of acid” value is recorded as “decomposed in the presence of acid”.
In the case of `O=C(O)Cn1cc(C(=O)O)c(=O)c2cccc(Br)c(=O)c21` [Example 4 (R^1 COOH, R^2 8-Br), 8-bromo-3-carboxy-4,9-dihydro-4,9-dioxo-1H-cyclohepta[b]pyridine-1-acetic acid], at aldose reductase [3] (setting [5]), the inhibition at 10 µM was 81%. Moreover, at aldose reductase [3] (enzyme from bovine lens), the inhibition at 1 µM is 47% and the inhibition at 0.1 µM worked out at 14%.
Consider `CN(CC(=O)[O-])C(=O)c1cn(CC(=O)[O-])c2c(=O)ccccc2c1=O.[Na+].[Na+]` [Disodium Salt], for which, on aldose reductase [3], the inhibition at 10 µM was found to be 22%.
`O=C(O)Cn1cc(C(=O)O)c(=O)c2cc(O)ccc(=O)c21` [Example 4 (R^1 COOH, R^2 6-OH), 3-carboxy-4,9-dihydro-6-hydroxy-4,9-dioxo-1H-cyclohepta[b]pyridine-1-acetic acid]: at aldose reductase [3] (setting [5]), the inhibition at 10 µM was found to be 84%. On aldose reductase [3] (enzyme from bovine lens), the inhibition at 1 µM came out at 53% and the inhibition at 0.1 µM stood at 16%.
